Changes are numbered by the printed parent chain.
Tests used:
[1] = biological target: T1, RhOpn5 (Rimicaris hybisae, UniProt Z9SF72QZI5); assay: UV-visible absorption spectroscopy of purified pigment; type: binding; details: covalent (Schiff base, Lys296); pH 8.0 and 6.5; 0 °C; mutation in bovine rhodopsin numbering
T1 construct: 178 C-terminal residues truncated, C-terminal Rho1D4 tag (ETSQVAPA), human-codon optimized, HEK293T; transcriptome reads SRA SRP339896
T1 sequence (Z9SF72QZI5 1-407 E336Q): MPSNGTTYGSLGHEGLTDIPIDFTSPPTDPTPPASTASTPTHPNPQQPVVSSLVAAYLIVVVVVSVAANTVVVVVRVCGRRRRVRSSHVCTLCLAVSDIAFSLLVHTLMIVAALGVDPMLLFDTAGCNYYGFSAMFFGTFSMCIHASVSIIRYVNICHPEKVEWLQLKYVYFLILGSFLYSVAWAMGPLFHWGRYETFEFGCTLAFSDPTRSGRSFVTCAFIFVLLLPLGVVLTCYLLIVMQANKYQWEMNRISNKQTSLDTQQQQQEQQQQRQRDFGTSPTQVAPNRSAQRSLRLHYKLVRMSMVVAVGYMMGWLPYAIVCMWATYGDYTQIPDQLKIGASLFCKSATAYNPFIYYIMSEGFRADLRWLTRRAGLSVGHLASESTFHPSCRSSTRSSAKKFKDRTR

[2] = biological target: T2, RhOpn5 (Rimicaris hybisae, UniProt Z9SF72QZI5, D98N, form not given); assay: as above; type: binding; details: covalent (Schiff base, Lys296); pH 8.0 and 6.5; 0 °C; mutation in bovine rhodopsin numbering; counterion mutant
T2 construct: 178 C-terminal residues truncated, C-terminal Rho1D4 tag (ETSQVAPA), human-codon optimized, HEK293T; transcriptome reads SRA SRP339896
T2 sequence (Z9SF72QZI5 1-407 D98N): T1 sequence (Z9SF72QZI5 1-407 E336Q) with D98N, Q336E

[3] = biological target: T3, RhOpn5 (Rimicaris hybisae, UniProt Z9SF72QZI5, E196Q, form not given); assay: as above; type: binding; details: covalent (Schiff base, Lys296); pH 8.0 and 6.5; 0 °C; mutation in bovine rhodopsin numbering
T3 construct: 178 C-terminal residues truncated, C-terminal Rho1D4 tag (ETSQVAPA), human-codon optimized, HEK293T; transcriptome reads SRA SRP339896
T3 sequence (Z9SF72QZI5 1-407 E196Q): T1 sequence (Z9SF72QZI5 1-407 E336Q) with E196Q, Q336E

[4] = biological target: T4, RhPeropsin (Rimicaris hybisae, UniProt Z9VFR8UU34); assay: HPLC of retinal isomers after irradiation; type: biochemical; details: covalent (Schiff base, Lys296); photoproduct under yellow light (>500 nm); 0 °C
T4 construct: C-terminal Rho1D4 tag (ETSQVAPA), human-codon optimized, expressed in HEK293T, no truncation stated; transcriptome reads SRA SRP339896
T4 sequence (Z9VFR8UU34 1-341): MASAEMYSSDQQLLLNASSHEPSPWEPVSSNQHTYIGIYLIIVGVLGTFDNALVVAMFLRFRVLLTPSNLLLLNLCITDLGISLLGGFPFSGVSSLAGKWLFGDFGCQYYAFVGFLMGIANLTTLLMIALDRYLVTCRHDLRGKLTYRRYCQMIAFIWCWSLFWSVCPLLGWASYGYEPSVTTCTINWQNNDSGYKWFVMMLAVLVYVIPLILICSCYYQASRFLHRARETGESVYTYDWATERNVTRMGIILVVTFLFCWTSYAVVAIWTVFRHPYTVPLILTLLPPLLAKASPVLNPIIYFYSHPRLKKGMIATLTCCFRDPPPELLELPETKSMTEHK

[5] = biological target: T5, RhOpn5 (Rimicaris hybisae, UniProt Z9SF72QZI5); assay: absorption spectroscopy and HPLC of retinal in purified pigment; type: binding; details: covalent (Schiff base, Lys296); dark state; 0 °C
T5 construct: 178 C-terminal residues truncated, C-terminal Rho1D4 tag (ETSQVAPA), human-codon optimized, HEK293T; transcriptome reads SRA SRP339896
T5 sequence (Z9SF72QZI5 1-407): T1 sequence (Z9SF72QZI5 1-407 E336Q) with Q336E

[6] = biological target: T6, RhOpn5 (Rimicaris hybisae, UniProt Z9SF72QZI5, E199Q, form not given); assay: UV-visible absorption spectroscopy of purified pigment; type: binding; details: covalent (Schiff base, Lys296); pH 8.0 and 6.5; 0 °C; mutation in bovine rhodopsin numbering
T6 construct: 178 C-terminal residues truncated, C-terminal Rho1D4 tag (ETSQVAPA), human-codon optimized, HEK293T; transcriptome reads SRA SRP339896
T6 sequence (Z9SF72QZI5 1-407 E199Q): T1 sequence (Z9SF72QZI5 1-407 E336Q) with E199Q, Q336E

[7] = biological target: T5, RhOpn5; assay: absorption spectroscopy and HPLC of retinal in purified pigment; type: biochemical; details: covalent (Schiff base, Lys296); photoproduct under yellow light (>480 nm); 0 °C
[8] = biological target: T4, RhPeropsin; assay: as above; type: biochemical; details: covalent (Schiff base, Lys296); dark state; photoisomerized under yellow light (>500 nm); 0 °C

| Structure (SMILES) | UV-visible absorption spectroscopy of purified pigment [1] | UV-visible absorption spectroscopy of purified pigment [2] | UV-visible absorption spectroscopy of purified pigment [3] | HPLC of retinal isomers after irradiation [4] | absorption spectroscopy and HPLC of retinal in purified pigment [5] | UV-visible absorption spectroscopy of purified pigment [6] | absorption spectroscopy and HPLC of retinal in purified pigment [7] | absorption spectroscopy and HPLC of retinal in purified pigment [8] |
| --- | --- | --- | --- | --- | --- | --- | --- | --- |
| CC1=C(/C=C/C(C)=C/C=C\C(C)=C\C=O)C(C)(C)CCC1 [11-cis-retinal] | the E179Q, E182Q, and E286Q mutants did not show pH-dependent spectral changes | the D83N mutant showed a significant pH-dependent change, with a small peak in the visible | the E179Q, E182Q, and E286Q mutants did not show pH-dependent spectral changes | RhPeropsin converts all-trans-retinal to 11-cis-retinal upon visible light absorption | RhOpn5 forms a blue light–sensitive pigment binding 11-cis-retinal in the resting state | the E179Q, E182Q, and E286Q mutants did not show pH-dependent spectral changes | – | – |
| CC1=C(/C=C/C(C)=C/C=C/C(C)=C/C=O)C(C)(C)CCC1 [all-trans-retinal] | – | – | – | – | – | – | accompanied by the conversion from 11-cis- to all-trans-retinal | RhPeropsin exclusively binds all-trans-retinal in the dark and produces 11-cis-retinal from all-trans-retinal |

— PMC12221356, “A repertoire of visible light–sensitive opsins in the deep-sea hydrothermal vent shrimp Rimicaris hybisae” (The Journal of Biological Chemistry, 2025)
